The values that follow come from patent US20020123080A1, “Inhibiting proliferation of cancer cells” (Tufts University, priority 1996, published 2002).

The test system of this assay is MCF-7 cells. The assay can be described thus: MCF-7 cell proliferation yield assay (nuclei counted after 4 days) with or without hormone. The assay is classed as cell-based, human. Particulars: hormone added with the inhibitor (CDHuS, CDHA, rHA); estradiol at 100 pM; the other hormones tested against rHA, data not shown. As to the method:
A clonal population of the human breast cancer MCF-7 cell line was used in some of the experiments described below. These cells were routinely grown in 5% fetal bovine serum (FBS) supplemented-Dulbecco's Modified Eagle's Medium (DME). […] Estrogen non-target, serum-insensitive human breast cancer MDA-MB231 cells (ATCC, Rockville, Md.) were used as controls; they were grown under the same conditions as MCF-7 cells.
To assess the inhibitory effect of serum or purified protein preparations, 4×10^4 cells/well were seeded in 12-well Falcon Multiplates in 5% FBS; they were allowed to attach for 24 h before exposing them to test medium. Cell proliferation yields were measured after 4 days in DME plus 25 ug transferrin (T)/ml and 100 ng insulin (I)/ml ([…]) alone, or ITDME plus CD human serum (CDHuS), or purified protein preparations. Each sample was tested in duplicate in the presence or absence of 100 pM estradiol (E2) and each experiment was repeated at least three times. Phenol red-free media were used in all experiments involving cell proliferation rates or yields. Cells were lysed and nuclei counted on a Coulter Counter Model ZM.
Consider `C[C@]12CCC(=O)C=C1CC[C@@H]1[C@@H]2[C@@H](O)C[C@@]2(C)[C@H]1CC[C@]2(O)C(=O)CO` [hydrocortisone], for which the “reversal by hormone of the inhibitory effect on MCF-7 proliferation” value was “failed to reverse the effect of rHA”. With `N[C@@H](Cc1cc(I)c(Oc2cc(I)c(O)c(I)c2)c(I)c1)C(=O)O` [thyroxine] the entry was “failed to reverse the effect of rHA”. Regarding `CC(=O)[C@H]1CC[C@H]2[C@@H]3CCC4=CC(=O)CC[C@]4(C)[C@H]3CC[C@]12C` [Progesterone], the “reversal by hormone of the inhibitory effect on MCF-7 proliferation” value is recorded as “failed to reverse the effect of rHA”. On to `C[C@]1(O)CC[C@H]2[C@@H]3CCC4=CC(=O)CCC4=C3C=C[C@@]21C` [R1881], for which the “reversal by hormone of the inhibitory effect on MCF-7 proliferation” value is on record as “failed to reverse the effect of rHA”. Consider `C[C@]12CCC(=O)C[C@@H]1CC[C@@H]1[C@@H]2CC[C@]2(C)[C@@H](O)CC[C@@H]12` [5α-dihydrotestosterone], for which the “reversal by hormone of the inhibitory effect on MCF-7 proliferation” value is listed as “failed to reverse the effect of rHA”.
